# From EP4684784A1, “ANTI-INFLAMMATORY COSMETIC COMPOSITION” (LG Chem, Ltd., priority 2023, dated 2025)
# Test system: Mouse macrophages
# Assay: Evaluation of reactive nitrogen species inhibiting ability (nitric oxide production, Griess reagent, LPS-treated macrophages)
# Type: cell-based
# Settings: for Nitrogen oxide concentration, Average / Nitrogen oxide concentration, Once / Nitrogen oxide concentration, Two times / Nitrogen oxide concentration, Three times: LPS 1 µg/ml, cultured 24 hours; for Nitrogen oxide concentration, Average: average of three; for Nitrogen oxide concentration, Once: replicate 1; for Nitrogen oxide concentration, Two times: replicate 2; for Nitrogen oxide concentration, Three times: replicate 3
# Method: Mouse macrophages were divided into 1X10^6 cells in a 6-well plate and cultured for 24 hours, then treated with LPS (Lipopolysaccharide, concentration 1 µg/ml) solution, and treated with the 3-hydroxypropionic acid aqueous solution according to Preparation Example 1 at four concentrations (3HP concentration: 0 wt.%, 0.0125 wt.%, 0.025 wt.%, 0.05 wt.%), and then cultured again for 24 hours. Only the medium was then separated and centrifuged for 10 minutes to collect only the supernatant. The supernatant was mixed with Griess reagent (Sigma-Aldrich) reagent in a 1:1 ratio and reacted at room temperature, and then the absorbance (OD, wavelength 540 nm) was measured using a microplate reader. The measured value was substituted into the regression equation obtained from the standard curve prepared by reacting Griess reagent (Sigma-Aldrich) and NaNO2 in a 1:1 ratio to calculate the amount of nitric oxide(NO) produced. Here, the case in which neither the LPS solution nor the 3HP aqueous solution was treated was performed as a negative control group.
compound,measurement,setting,value
"O=C(O)CCO [Example 3HP, 3-hydroxypropionic acid]","Nitrogen oxide concentration, Average",3HP concentration 0.0125 wt.%,64.949 µM
same,"Nitrogen oxide concentration, Once",3HP concentration 0.0125 wt.%,63.956 µM
same,"Nitrogen oxide concentration, Two times",3HP concentration 0.0125 wt.%,64.800 µM
same,"Nitrogen oxide concentration, Three times",3HP concentration 0.0125 wt.%,66.093 µM
same,"Nitrogen oxide concentration, Average",3HP concentration 0.025 wt.%,64.774 µM
same,"Nitrogen oxide concentration, Once",3HP concentration 0.025 wt.%,63.138 µM
same,"Nitrogen oxide concentration, Two times",3HP concentration 0.025 wt.%,65.222 µM
same,"Nitrogen oxide concentration, Three times",3HP concentration 0.025 wt.%,65.961 µM
same,"Nitrogen oxide concentration, Average",3HP concentration 0.05 wt.%,56.630 µM
same,"Nitrogen oxide concentration, Once",3HP concentration 0.05 wt.%,56.146 µM
same,"Nitrogen oxide concentration, Two times",3HP concentration 0.05 wt.%,56.357 µM
same,"Nitrogen oxide concentration, Three times",3HP concentration 0.05 wt.%,57.386 µM
same,inhibiting the production of reactive nitrogen species,"under the treatment concentrations 0.0125 to 0.05 wt.%, result in words",effect of inhibiting the production of reactive nitrogen species was exhibited
